Reference: ChEMBL document CHEMBL2331210, “New 2-benzylsulfanyl-nicotinic acid based 1,3,4-oxadiazoles: their synthesis and biological evaluation” (2013)
Converted amounts (≈) assume the structure as drawn.

What was measured:
[1] = system: Staphylococcus aureus; assay: Antimicrobial activity against Staphylococcus aureus MTCC 96 assessed as growth inhibition measured after overnight incubation by broth dilution method; assay type: functional
[2] = system: K562; assay: Antitumor activity against human K562 cells assessed as cell growth at 0.1 uM; assay type: functional; conditions: read-out: Activity
[3] = system: LOX IMVI; assay: Antitumor activity against human LOXIMVI cells assessed as cell growth at 0.1 uM; assay type: functional; conditions: read-out: Activity
[4] = system: Malme-3M; assay: Antitumor activity against human MALME-3M cells assessed as cell growth at 0.1 uM; assay type: functional; conditions: read-out: Activity
[5] = system: UO-31; assay: Antitumor activity against human UO31 cells assessed as cell growth at 0.1 uM; assay type: functional; conditions: read-out: Activity
[6] = system: HT-29; assay: Antitumor activity against human HT-29 cells assessed as cell growth at 0.1 uM; assay type: functional; conditions: read-out: Activity
[7] = system: MDA-MB-468; assay: Antitumor activity against human MDA-MB-468 cells assessed as cell growth at 0.1 uM; assay type: functional; conditions: read-out: Activity
[8] = system: Aspergillus niger; assay: Antimicrobial activity against Aspergillus niger MTCC 282 assessed as growth inhibition measured after overnight incubation by broth dilution method; assay type: functional
[9] = system: Candida albicans; assay: Antimicrobial activity against Candida albicans MTCC 227 assessed as growth inhibition measured after overnight incubation by broth dilution method; assay type: functional
[10] = system: SK-OV-3; assay: Antitumor activity against human SKOV3 cells assessed as cell growth at 0.1 uM; assay type: functional; conditions: read-out: Activity
[11] = system: RPMI-8226; assay: Antitumor activity against human RPMI8226 cells assessed as cell growth at 0.1 uM; assay type: functional; conditions: read-out: Activity
[12] = system: MOLT-4; assay: Antitumor activity against human MOLT4 cells assessed as cell growth at 0.1 uM; assay type: functional; conditions: read-out: Activity
[13] = system: HCT-15; assay: Antitumor activity against human HCT15 cells assessed as cell growth at 0.1 uM; assay type: functional; conditions: read-out: Activity
[14] = system: SK-MEL-28; assay: Antitumor activity against human SK-MEL-28 cells assessed as cell growth at 0.1 uM; assay type: functional; conditions: read-out: Activity
[15] = system: BT-549; assay: Antitumor activity against human BT549 cells assessed as cell growth at 0.1 uM; assay type: functional; conditions: read-out: Activity
[16] = system: Pseudomonas aeruginosa; assay: Antimicrobial activity against Pseudomonas aeruginosa MTCC 2488 assessed as growth inhibition measured after overnight incubation by broth dilution method; assay type: functional
[17] = system: M14; assay: Antitumor activity against human M14 cells assessed as cell growth at 0.1 uM; assay type: functional; conditions: read-out: Activity
[18] = system: TK-10; assay: Antitumor activity against human TK10 cells assessed as cell growth at 0.1 uM; assay type: functional; conditions: read-out: Activity
[19] = system: NCI/ADR-RES; assay: Antitumor activity against human NCI/ADR-RES cells assessed as cell growth at 0.1 uM; assay type: functional; conditions: read-out: Activity
[20] = system: SNB-75; assay: Antitumor activity against human SNB75 cells assessed as cell growth at 0.1 uM; assay type: functional; conditions: read-out: Activity
[21] = system: SR; assay: Antitumor activity against human SR cells assessed as cell growth at 0.1 uM; assay type: functional; conditions: read-out: Activity
[22] = system: SN12C; assay: Antitumor activity against human SN12C cells assessed as cell growth at 0.1 uM; assay type: functional; conditions: read-out: Activity
[23] = system: T47D; assay: Antitumor activity against human T47D cells assessed as cell growth at 0.1 uM; assay type: functional; conditions: read-out: Activity
[24] = system: OVCAR-5; assay: Antitumor activity against human OVCAR5 cells assessed as cell growth at 0.1 uM; assay type: functional; conditions: read-out: Activity
[25] = system: SW-620; assay: Antitumor activity against human SW620 cells assessed as cell growth at 0.1 uM; assay type: functional; conditions: read-out: Activity
[26] = system: Streptococcus pyogenes; assay: Antimicrobial activity against Streptococcus pyogenes MTCC 442 assessed as growth inhibition measured after overnight incubation by broth dilution method; assay type: functional
[27] = system: UACC-257; assay: Antitumor activity against human UACC257 cells assessed as cell growth at 0.1 uM; assay type: functional; conditions: read-out: Activity
[28] = system: PC-3; assay: Antitumor activity against human PC3 cells assessed as cell growth at 0.1 uM; assay type: functional; conditions: read-out: Activity
[29] = system: NCI-H522; assay: Antitumor activity against human NCI-H522 cells assessed as cell growth at 0.1 uM; assay type: functional; conditions: read-out: Activity
[30] = system: SK-MEL-5; assay: Antitumor activity against human SK-MEL-5 cells assessed as cell growth at 0.1 uM; assay type: functional; conditions: read-out: Activity
[31] = system: Mycobacterium tuberculosis; assay: Antitubercular activity against Mycobacterium tuberculosis H37Rv assessed as growth inhibition after 12 to 28 days by L.J. agar MIC method; assay type: functional
[32] = Antitumor activity against human EKVX cells assessed as cell growth at 0.1 uM; assay type: functional; conditions: read-out: Activity
[33] = system: CAKI-1; assay: Antitumor activity against human CAKI-1 cells assessed as cell growth at 0.1 uM; assay type: functional; conditions: read-out: Activity
[34] = system: SNB-19; assay: Antitumor activity against human SNB19 cells assessed as cell growth at 0.1 uM; assay type: functional; conditions: read-out: Activity
[35] = system: U-251; assay: Antitumor activity against human U251 cells assessed as cell growth at 0.1 uM; assay type: functional; conditions: read-out: Activity
[36] = system: OVCAR-8; assay: Antitumor activity against human OVCAR8 cells assessed as cell growth at 0.1 uM; assay type: functional; conditions: read-out: Activity
[37] = system: A498; assay: Antitumor activity against human A498 cells assessed as cell growth at 0.1 uM; assay type: functional; conditions: read-out: Activity
[38] = system: HCT-116; assay: Antitumor activity against human HCT116 cells assessed as cell growth at 0.1 uM; assay type: functional; conditions: read-out: Activity
[39] = system: UACC-62; assay: Antitumor activity against human UACC62 cells assessed as cell growth at 0.1 uM; assay type: functional; conditions: read-out: Activity
[40] = system: MCF7; assay: Antitumor activity against human MCF7 cells assessed as cell growth at 0.1 uM; assay type: functional; conditions: read-out: Activity
[41] = system: SF-268; assay: Antitumor activity against human SF268 cells assessed as cell growth at 0.1 uM; assay type: functional; conditions: read-out: Activity
[42] = system: IGROV-1; assay: Antitumor activity against human IGROV1 cells assessed as cell growth at 0.1 uM; assay type: functional; conditions: read-out: Activity
[43] = system: NCI-H226; assay: Antitumor activity against human NCI-H226 cells assessed as cell growth at 0.1 uM; assay type: functional; conditions: read-out: Activity
[44] = system: MDA-MB-231; assay: Antitumor activity against human MDA-MB-231/ATCC cells assessed as cell growth at 0.1 uM; assay type: functional; conditions: read-out: Activity
[45] = system: OVCAR-4; assay: Antitumor activity against human OVCAR4 cells assessed as cell growth at 0.1 uM; assay type: functional; conditions: read-out: Activity
[46] = system: SF-295; assay: Antitumor activity against human SF295 cells assessed as cell growth at 0.1 uM; assay type: functional; conditions: read-out: Activity
[47] = system: OVCAR-3; assay: Antitumor activity against human OVCAR3 cells assessed as cell growth at 0.1 uM; assay type: functional; conditions: read-out: Activity
[48] = system: SK-MEL-2; assay: cells; conditions: Homo sapiens, SK-MEL-2, read-out: Activity
Description: Antitumor activity against human SK-MEL-2 cells assessed as cell growth at 0.1 uM

[49] = system: HOP-62; assay: Antitumor activity against human HOP62 cells assessed as cell growth at 0.1 uM; assay type: functional; conditions: read-out: Activity
[50] = system: DU-145; assay: Antitumor activity against human DU145 cells assessed as cell growth at 0.1 uM; assay type: functional; conditions: read-out: Activity
[51] = system: ACHN; assay: Antitumor activity against human ACHN cells assessed as cell growth at 0.1 uM; assay type: functional; conditions: read-out: Activity
[52] = system: SF-539; assay: Antitumor activity against human SF539 cells assessed as cell growth at 0.1 uM; assay type: functional; conditions: read-out: Activity
[53] = system: MDA-MB-435; assay: Antitumor activity against human MDA-MB-435 cells assessed as cell growth at 0.1 uM; assay type: functional; conditions: read-out: Activity
[54] = system: Aspergillus clavatus; assay: Antimicrobial activity against Aspergillus clavatus MTCC 1323 assessed as growth inhibition measured after overnight incubation by broth dilution method; assay type: functional
[55] = system: A549; assay: Antitumor activity against human A549/ATCC cells assessed as cell growth at 0.1 uM; assay type: functional; conditions: read-out: Activity
[56] = system: RXF 393; assay: Antitumor activity against human RXF393 cells assessed as cell growth at 0.1 uM; assay type: functional; conditions: read-out: Activity
[57] = Antitumor activity against human HCC2998 cells assessed as cell growth at 0.1 uM; assay type: functional; conditions: HCC 2998, read-out: Activity
[58] = system: NCI-H23; assay: Antitumor activity against human NCI-H23 cells assessed as cell growth at 0.1 uM; assay type: functional; conditions: read-out: Activity
[59] = Antitumor activity against human Hs 578T cells assessed as cell growth at 0.1 uM; assay type: functional; conditions: read-out: Activity
[60] = system: HL-60; assay: Antitumor activity against human HL60(TB) cells assessed as cell growth at 0.1 uM; assay type: functional; conditions: read-out: Activity
[61] = system: NCI-H460; assay: Antitumor activity against human NCI-H460 cells assessed as cell growth at 0.1 uM; assay type: functional; conditions: read-out: Activity
[62] = system: Escherichia coli; assay: Antimicrobial activity against Escherichia coli MTCC 443 assessed as growth inhibition measured after overnight incubation by broth dilution method; assay type: functional
[63] = system: CCRF-CEM; assay: Antitumor activity against human CCRF-CEM cells assessed as cell growth at 0.1 uM; assay type: functional; conditions: read-out: Activity

## COc1cc(OC)nc(NC(=O)CSc2nnc(-c3cccnc3SCc3ccccc3)o2)n1
[1]
  MIC: 250 µg/mL (≈ 503 µM)
[2]
  growth at 0.1 µM: 98.2%
[3]
  growth at 0.1 µM: 97.6%
[4]
  growth at 0.1 µM: 98.2%
[5]
  growth at 0.1 µM: 80.6%
[6]
  growth at 0.1 µM: 100%
[7]
  growth at 0.1 µM: 98.2%
[8]
  MIC: 500 µg/mL (≈ 1010 µM)
[9]
  MIC: 500 µg/mL (≈ 1010 µM)
[10]
  growth at 0.1 µM: 103%
[11]
  growth at 0.1 µM: 101%
[12]
  growth at 0.1 µM: 93.2%
[13]
  growth at 0.1 µM: 105%
[14]
  growth at 0.1 µM: 114%
[15]
  growth at 0.1 µM: 99.6%
[16]
  MIC: 250 µg/mL (≈ 503 µM)
[17]
  growth at 0.1 µM: 96.7%
[18]
  growth at 0.1 µM: 98.6%
[19]
  growth at 0.1 µM: 102%
[20]
  growth at 0.1 µM: 92.5%
[21]
  growth at 0.1 µM: 96.2%
[22]
  growth at 0.1 µM: 106%
[23]
  growth at 0.1 µM: 89.9%
[24]
  growth at 0.1 µM: 101%
[25]
  growth at 0.1 µM: 107%
[26]
  MIC: 125 µg/mL (≈ 252 µM)
[27]
  growth at 0.1 µM: 105%
[28]
  growth at 0.1 µM: 104%
[29]
  growth at 0.1 µM: 88.2%
[30]
  growth at 0.1 µM: 105%
[31]
  growth inhibition (GI): 99%
[31]; Mycobacterium tuberculosis, H37Rv
  MIC: 250 µg/mL (≈ 503 µM)
[32]
  growth at 0.1 µM: 105%
[33]
  growth at 0.1 µM: 99.5%
[34]
  growth at 0.1 µM: 107%
[35]
  growth at 0.1 µM: 106%
[36]
  growth at 0.1 µM: 105%
[37]
  growth at 0.1 µM: 125%
[38]
  growth at 0.1 µM: 101%
[39]
  growth at 0.1 µM: 107%
[40]
  growth at 0.1 µM: 95.5%
[41]
  growth at 0.1 µM: 104%
[42]
  growth at 0.1 µM: 114%
[43]
  growth at 0.1 µM: 101%
[44]
  growth at 0.1 µM: 108%
[45]
  growth at 0.1 µM: 100%
[46]
  growth at 0.1 µM: 97.1%
[47]
  growth at 0.1 µM: 102%
[48]
  growth at 0.1 µM: 102%
[49]
  growth at 0.1 µM: 99.7%
[50]
  growth at 0.1 µM: 108%
[51]
  growth at 0.1 µM: 107%
[52]
  growth at 0.1 µM: 94.5%
[53]
  growth at 0.1 µM: 105%
[54]
  MIC: 500 µg/mL (≈ 1010 µM)
[55]
  growth at 0.1 µM: 96.5%
[56]
  growth at 0.1 µM: 107%
[57]
  growth at 0.1 µM: 109%
[58]
  growth at 0.1 µM: 103%
[59]
  growth at 0.1 µM: 107%
[60]
  growth at 0.1 µM: 97.3%
[61]
  growth at 0.1 µM: 112%
[62]
  MIC: 100 µg/mL (≈ 201 µM)
[63]
  growth at 0.1 µM: 108%
